According to BindingDB's records for doi:10.1016/j.bmcl.2017.01.084 (China Pharmaceutical University, 2017):

Test: Agonist activity at VDR in human HL60 cells assessed as induction of cell differentiation by measuring increase in NBT positive cells by Wright staining based microscopic method

Compound: CCn1c(C(=O)NCCC(=O)O)ccc1C(CC)(CC)c1ccc(C#CC(O)(CC)CC)c(C)c1
- EC50: 293 nM

Compound: CCn1cc(C(CC)(CC)c2ccc(C#CC(O)(CC)CC)c(C)c2)cc1C(=O)NCCCN(C)C
- EC50: 142 nM

Compound: CCN(CC)CCCNC(=O)c1ccc(C(CC)(CC)c2ccc(C#CC(O)(CC)CC)c(C)c2)n1CC
- EC50: 69 nM

Compound: CCCCC(=O)c1ccc(C(CC)(CC)c2ccc(C#CC(O)(CC)CC)c(C)c2)n1CC
- EC50: > 50 nM

Compound: CCn1cc(C(CC)(CC)c2ccc(C#CC(O)(CC)CC)c(C)c2)cc1C(=O)N[C@H](C(=O)O)C(C)C
- EC50: 13 nM

Compound: CCn1c(C(=O)NCC(=O)O)ccc1C(CC)(CC)c1ccc(C#CC(O)(CC)CC)c(C)c1
- EC50: 9.4 nM

Compound: CCn1cc(C(CC)(CC)c2ccc(C#CC(O)(CC)CC)c(C)c2)cc1C(=O)N[C@@H](C)CO
- EC50: 7.3 nM

Compound: CCn1cc(C(CC)(CC)c2ccc(C#CC(O)(CC)CC)c(C)c2)cc1C(=O)N[C@@H](C(=O)O)C(C)C
- EC50: 68 nM

Compound: CCN(CC)CCNC(=O)c1ccc(C(CC)(CC)c2ccc(C#CC(O)(CC)CC)c(C)c2)n1CC
- EC50: 10 nM

Compound: CCCCC(=O)c1cc(C(CC)(CC)c2ccc(C#CC(O)(CC)CC)c(C)c2)cn1CC
- EC50: > 50 nM

Compound: CCn1c(C(=O)NCCC(=O)OC)ccc1C(CC)(CC)c1ccc(C#CC(O)(CC)CC)c(C)c1
- EC50: > 50 nM

Compound: CCn1cc(C(CC)(CC)c2ccc(C#CC(O)(CC)CC)c(C)c2)cc1C(=O)NCCN(C)C
- EC50: 19 nM

Compound: CCn1cc(C(CC)(CC)c2ccc(C#CC(O)(CC)CC)c(C)c2)cc1C(=O)NCC(=O)OC
- EC50: 288 nM

Compound: CCn1cc(C(CC)(CC)c2ccc(C#CC(O)(CC)CC)c(C)c2)cc1C(=O)NCCC(=O)O
- EC50: > 50 nM

Compound: CCn1c(C(=O)NCCCO)ccc1C(CC)(CC)c1ccc(C#CC(O)(CC)CC)c(C)c1
- EC50: 137 nM

Compound: CCn1c(C(=O)N[C@H](C(=O)O)C(C)C)ccc1C(CC)(CC)c1ccc(C#CC(O)(CC)CC)c(C)c1
- EC50: 18 nM

Compound: C#CCCOC(=O)c1ccc(C(CC)(CC)c2ccc(C#CC(O)(CC)CC)c(C)c2)n1CC
- EC50: > 50 nM

Compound: CCn1cc(C(CC)(CC)c2ccc(C#CC(O)(CC)CC)c(C)c2)cc1C(=O)OCCO
- EC50: 13 nM

Compound: CCn1c(C(=O)NCc2ccc(OC)cc2)ccc1C(CC)(CC)c1ccc(C#CC(O)(CC)CC)c(C)c1
- EC50: > 50 nM

Compound: CCn1c(C(=O)On2nnc3ccccc32)ccc1C(CC)(CC)c1ccc(C#CC(O)(CC)CC)c(C)c1
- EC50: > 50 nM

Compound: CCN(CC)CCNC(=O)c1ccc(C(CC)(CC)c2ccc(OCC(O)C(C)(C)C)c(C)c2)n1CC (stereo not drawn)
- EC50: 6.5 nM

Compound: CCN(CC)CCNC(=O)c1cc(C(CC)(CC)c2ccc(C#CC(O)(CC)CC)c(C)c2)cn1CC
- EC50: 7 nM

Compound: CCn1cc(C(CC)(CC)c2ccc(C#CC(O)(CC)CC)c(C)c2)cc1C(=O)NCC(=O)O
- EC50: 54 nM
